The values that follow come from PubChem BioAssay (NCI).

Common to all, as to test: NCI tumour cell line growth inhibition, 48 h
Experiment [1] deals with OVCAR-5 ovarian.
In experiment [2] the test system is SK-MEL-28 melanoma.
Experiment [3] concerns MALME-3M melanoma.
Experiment [4] deals with SF-539 CNS.
Experiment [5] concerns IGROV1 ovarian.
Experiment [6] relates to OVCAR-3 ovarian.
The test system of experiment [7] is MCF7 breast.
Experiment [8] deals with U251 CNS.
The subject of experiment [9] is MOLT-4 leukemia.
For experiment [10], the system named is TK-10 renal.

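Where inhibition never reached the appropriate level, the endpoint shown equals the highest concentration tested. Otherwise, values were interpolated linearly from a five-concentration, 48-hour dose response in 96-well plates. GI50 = concentration required for 50% inhibition of growth. TGI is the concentration that stops growth completely.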

Consider `CS(=O)(=O)c1ccc(-c2cnc(N)c(C(=O)Nc3ccccc3)n2)cc1`, for which the GI50 in [1] is over 100 µM; in [2], 98.6 µM; in [3], over 100 µM; in experiment [4], 6.81 µM; in experiment [5], 5.17 µM; in [6] it was 15.7 µM. In addition, the GI50 in experiment [7] was 10.8 µM; in [8] it was 31.7 µM; in experiment [9], 3.4 µM; in experiment [10] it was 16.9 µM. In addition, the TGI in experiment [1], in experiment [2], in [3], in [4], in experiment [5] and in [6] was over 100 µM in each case. Besides, the TGI in experiment [7], in [8], in [9] and in [10] was over 100 µM each time.

For the compound `COC(=O)c1cc(-c2cc(OC)c(OC)c(OC)c2)[nH]c1N/N=C/c1c(Cl)cccc1Cl`, the GI50 is 2.25 µM in experiment [1]; 2.8 µM in [2]; 1.47 µM in experiment [3]; 1.35 µM in [4]; 2.48 µM in experiment [5]; 0.57 µM in experiment [6]. Further, the GI50 is 1.77 µM in [7], 2.17 µM in experiment [8], 9.27 µM in experiment [9] and 0.528 µM in experiment [10]. For the same compound, the TGI in experiment [1] was 13.4 µM; in experiment [2] it was 12.4 µM; in experiment [3] it was 8.2 µM; in [4], 5.47 µM; in experiment [5], 16.8 µM; in experiment [6], 3.02 µM. For the same compound, the TGI was 53 µM in [7], 10.1 µM in [8], over 56.3 µM in experiment [9] and 2.68 µM in experiment [10].

For `NC(=O)c1oc([N+](=O)[O-])c(-c2ccccc2)c1-c1ccccc1`, the TGI in [1] is 63.2 µM; in experiment [2] it was over 100 µM; in [3] it was 16 µM; in experiment [4] it was 38.1 µM; in experiment [5], 31.5 µM; in experiment [6], 22.7 µM. Also, the TGI is over 100 µM in experiment [7], 71.1 µM in [8], 96.6 µM in [9] and 72.8 µM in experiment [10].

As to `Cc1nc2cnc3cc(F)c(-c4ccc(Oc5ncccn5)cc4Cl)cc3c2n1[C@H]1CCN(C(=O)CO)C[C@@H]1F`, the GI50 in [1] was 0.279 µM; in [2] it was 0.023 µM; in experiment [4], 3.03 µM; in experiment [5], 0.936 µM; in experiment [6] it was 20 µM; in experiment [7], 6.51 µM. Moreover, the values for the GI50 in experiment [8], in experiment [9] and in experiment [10] were 5.91 µM, 0.792 µM and 1.76 µM, respectively. Further, the TGI is over 40.1 µM in experiment [1]; 12.1 µM in [2]; 0.0316 µM in experiment [3]; 16.9 µM in experiment [4]; over 100 µM in experiment [5]; over 76.3 µM in experiment [6]. In addition, the TGI was over 58.2 µM in experiment [7], over 100 µM in [8], 30 µM in experiment [9] and 36 µM in experiment [10].

For `NC1=C(Br)C(=O)c2ncccc2C1=O`, the TGI was 3.49 µM in [1]; 1.25 µM in [2]; 1.4 µM in experiment [3]; 0.629 µM in experiment [4]; 2.62 µM in [5]; 2.33 µM in experiment [6]. The TGI in [7] worked out at 1.99 µM; in [8] it was 0.671 µM; in [9], 4.83 µM; in experiment [10] it was 5.81 µM. The GI50 in [7] is 0.367 µM.

As for `C/C([O-])=C1\Cc2ccccc2C1=O.C/C([O-])=C1\Cc2ccccc2C1=O.CC[O-].CC[O-].[Ti+4]`, the GI50 in experiment [1] is 30.5 µM; in [2] it was 17.7 µM; in [3], 18.8 µM; in [4] it was 13.6 µM; in [5] it was 8.46 µM; in experiment [6], 24 µM. In addition, the GI50 in [7] was 22 µM; in [8], 9.36 µM; in experiment [9] it was 16.5 µM; in experiment [10], 32.2 µM. In addition, the TGI was 72.9 µM in [1]; 38.1 µM in experiment [2]; over 59.8 µM in experiment [3]; 33.1 µM in experiment [4]; 39.5 µM in experiment [5]; over 100 µM in [6]. Moreover, the TGI in experiment [7] is over 100 µM; in experiment [8], 26.2 µM; in experiment [9], over 46.4 µM; in experiment [10], over 100 µM.

Take `C=C1CC2(C[C@@H](c3ccccc3)O[C@@H](c3ccccc3)C2)OC1=O` (stereo not given in full): the TGI in [1] was found to be 26.9 µM; in experiment [2] it was 3.83 µM; in experiment [3], 4.28 µM; in experiment [4], 4.94 µM; in [5] it was 8.26 µM; in experiment [6] it was 6.07 µM. For the same compound, the TGI in experiment [7] amounted to 5.73 µM; in experiment [8], 28.9 µM; in [9] it was 5.61 µM; in experiment [10], 3.89 µM.

With `CC1=CCC(OC(=O)C(C)(C)CCC(O)(C(=O)OC2(C(C)C)CCC3(C)OC3C2)C(C)C)(C(C)C)CC1` (stereo not given), the GI50 was 0.695 µM in [1]; 0.993 µM in [2]; 0.733 µM in experiment [3]; 0.707 µM in experiment [4]; 0.0814 µM in experiment [5]; 0.0833 µM in [6]. Further, the GI50 in [7] is 0.121 µM; in [8], 0.363 µM; in experiment [9], 0.131 µM; in experiment [10] it was 0.532 µM. Moreover, the TGI in [1] was determined as 1.39 µM; in [2], 3.01 µM; in experiment [3], 1.48 µM; in [4] it was 1.36 µM; in [5] it was 0.272 µM; in [6], 0.166 µM. Besides, the TGI was found to be 0.448 µM in experiment [7], 1.12 µM in experiment [8], 4.99 µM in experiment [9] and 1.43 µM in experiment [10].

As to `CC(C)(O)C1CCC(Nc2ccc3ncc(-c4cccc(C(F)(F)F)c4)n3n2)CC1` (stereo not given), the GI50 is 2.92 µM in experiment [1]; 1.6 µM in experiment [2]; 2.25 µM in experiment [3]; 1.77 µM in [4]; 2.48 µM in experiment [5]; 2.99 µM in [6]. Besides, the GI50 was 2.75 µM in experiment [7], 2.36 µM in experiment [8], 1.8 µM in experiment [9] and 2.62 µM in [10]. Besides, the TGI in [1] was over 100 µM; in [2] it was 3.91 µM; in [3], 13.6 µM; in experiment [4], 11.2 µM; in experiment [5], 11.6 µM; in [6], 13.3 µM. Besides, the TGI is 12.5 µM in [7], 11.9 µM in experiment [8], 7.02 µM in experiment [9] and 14.1 µM in experiment [10].
